Experimental data: US9597407B2, “Targeted antimicrobial moieties” (C3 Jian, Inc., priority 2009, dated 2017)
“Also recorded” adds a separate entry of the source.

Test system: bacteria
Experiment: Binding of targeting peptides to microorganisms (Table 3)
Settings: preferably 1x PBS
[1] = microorganism bound by the targeting peptide, binding in aqueous buffers chosen by peptide solubility
[2] = peptide binding in aqueous buffers varied by peptide solubility
[3] = microorganism the targeting peptide binds, binding in aqueous buffers that varied with peptide solubility
[4] = peptide binding in aqueous buffers that varied depending on peptide solubility

Row | Substance | Target(s) [1] | Target(s) (microorganism bound by the targeting peptide) [2] | other results
1 | PF-285 (VPAKLLRVIDEIPE; Peptide with targeting and/or antimicrobial activity) | S. mutans | – | –
2 | 1T-177 (GTNVPTQILGYSREERFDYEPAPEQR; Peptide with targeting and/or antimicrobial activity) [Peptide 1T-177] | – | P. gingivalis; also recorded: S. gordonii; also recorded: S. mitis; also recorded: S. mutans; also recorded: S. oralis; also recorded: S. salivarious; also recorded: S. sanguinis | –
3 | 1T-52 (DEYPAKLPLSDKGATEPRRH; Peptide with targeting and/or antimicrobial activity) [Peptide 1T-52] | – | S. aureus; also recorded: C. xerosis; also recorded: P. aeruginosa | –
4 | 1T-55 (NHKTLKEWKAKWGPEAVESWATLLG; Peptide with targeting and/or antimicrobial activity) [Peptide 1T-55] | – | C. xerosis; also recorded: P. aeruginosa | –
5 | PF-200 (GIELKSLIMAQIERWRQA; Peptide with targeting and/or antimicrobial activity) | S. epidermidis and M. luteus and MRSA and E. faecalis and C. jeikeium | – | –
6 | 1T-188 (HRKDVYKK; Peptide with targeting and/or antimicrobial activity) [Peptide 1T-188] | – | – | Target(s) [3]: S. sanguinis
7 | PF-361 (NQVTEGIRLLVE; Peptide with targeting and/or antimicrobial activity) | S. epidermidis; also recorded: E. coli; also recorded: E. faecalis; also recorded: C. jejuni | – | –
8 | 1T-46 (FSFKQRVMFRKEVERLR; Peptide with targeting and/or antimicrobial activity) [Peptide 1T-46] | – | S. aureus; also recorded: S. epidermidis; also recorded: C. jeikeium; also recorded: C. xerosis; also recorded: C. striatum; also recorded: P. aeruginosa | –
9 | 1T-16 (IDMR; Peptide with targeting and/or antimicrobial activity) [Peptide 1T-16] | – | P. aeruginosa | –
10 | 1T-81 (AIATGLDIVDGKFDGYLWA; Peptide with targeting and/or antimicrobial activity) [Peptide 1T-81] | – | S. pneumoniae | –
11 | PF-279 (SHIGFISISACLAVLLGIARLFVWTWVKFFA; Peptide with targeting and/or antimicrobial activity) | S. mutans; also recorded: S. epidermidis; also recorded: M. luteus; also recorded: E. coli; also recorded: P. aeruginosa; also recorded: A. baumannii | – | –
12 | 1T-25 (VGLDVSVLVLFFGLQLLSVLLGAMIR; Peptide with targeting and/or antimicrobial activity) [Peptide 1T-25] | – | S. aureus; also recorded: S. epidermidis; also recorded: C. xerosis; also recorded: C. striatum; also recorded: P. aeruginosa | –
13 | 1T-30 (GKAKPYQVRQVLRAVDKLETRRKKGGR; Peptide with targeting and/or antimicrobial activity) [Peptide 1T-30] | – | S. aureus; also recorded: S. epidermidis; also recorded: C. xerosis; also recorded: C. striatum; also recorded: P. aeruginosa | –
14 | 1T-196 (KPEKEKLDTNTLMKVVNKALSLFDRLLIKFGA; Peptide with targeting and/or antimicrobial activity) [Peptide 1T-196] | – | – | Target(s) [3]: F. nucleatum; also recorded: S. sanguinis
15 | PF-275 (LVSGVANTVKNTAHTVGNTAKHAGHVAADTTVKATKKQQVK; Peptide with targeting and/or antimicrobial activity) | S. mutans | – | –
16 | PF-158 (VRLESRPADLPE; Peptide with targeting and/or antimicrobial activity) | S. epidermidis | – | –
17 | 1T-43 (DRCLSVLSWSPPKVSPLI; Peptide with targeting and/or antimicrobial activity) [Peptide 1T-43] | – | C. jeikium; also recorded: P. aeruginosa | –

Row | Substance | Target(s) [1] | Target(s) (microorganism bound by the targeting peptide) [2] | other results
18 | PF-138 (AVHHSLLFR; Peptide with targeting and/or antimicrobial activity) | S. epidermidis and M. luteus and P. mirabilis and E. coli and C. albicans and MRSA and C. jeikeium and C. jejuni | – | –
19 | PF-240 (RITEVPPDEHSDR; Peptide with targeting and/or antimicrobial activity) | S. mutans; also recorded: E. coli | – | –
20 | PF-159 (TMAFVEKAQLRVPVGDDLPV; Peptide with targeting and/or antimicrobial activity) | S. epidermidis | – | –
21 | PF-650 (IRSDQPGRQSRSSPRWPTGAGRHR; Peptide with targeting and/or antimicrobial activity) | – | – | Target(s) (microorganism bound by the targeting peptide) [4]: Mycobacteria spp
22 | PF-400 (VIAWKFRNKFENSGV; Peptide with targeting and/or antimicrobial activity) | – | – | Target(s) (microorganisms bound by the targeting peptide) [4]: S. epidermidis; also recorded: E. coli; also recorded: S. pneumoniae; also recorded: E. faecalis; also recorded: C. jeikeium
23 | PF-489 (KVDRVSTTITEKIK; Peptide with targeting and/or antimicrobial activity) | – | – | Target(s) (microorganisms bound by the targeting peptide) [4]: S. mutans
24 | 1T-69 (ILSQEADRKKLF; Peptide with targeting and/or antimicrobial activity) [Peptide 1T-69] | – | S. mutans; also recorded: P. aeruginosa | –
25 | PF-268 (EVLLSDLRPDIFSET; Peptide with targeting and/or antimicrobial activity) | S. mutans | – | –
26 | LVLRICTDLFTFIKWTIKQRKS [PF-497] | – | – | Target(s) (microorganisms bound by the targeting peptide) [4]: S. mutans; also recorded: B. subtilis; also recorded: E. coli
27 | PF-705 (GEEEGTVAD; Peptide with targeting and/or antimicrobial activity) | – | – | Target(s) (microorganism bound by the targeting peptide) [4]: S. mutans; also recorded: E. coli
28 | 1T-82 (FGVGVGIALFMAGYAIGKDLRKKFGKSC; Peptide with targeting and/or antimicrobial activity) [Peptide 1T-82] | – | S. pneumoniae | –
29 | PF-790 (PAGPDHLDQRDHR; Peptide with targeting and/or antimicrobial activity) | – | – | Target(s) (microorganism bound by the targeting peptide) [4]: Mycobacteria spp.
30 | 1T-101 (RLRVGRATDLPLTSFAVGVVRNLPDAPAH; Peptide with targeting and/or antimicrobial activity) [Peptide 1T-101] | – | A. naeslundii; also recorded: P. gingivalis; also recorded: S. epidermidis; also recorded: S. gordonii; also recorded: S. mitis; also recorded: S. mutans; also recorded: S. oralis; also recorded: S. sanguinis | –
31 | 1T-89 (HEDDKRRGMSVEVLGFEVVQHEE; Peptide with targeting and/or antimicrobial activity) [Peptide 1T-89] | – | S. mitis; also recorded: S. mutans | –
32 | 1T-222 (RIEASLISAIMFSMFNAIVKFLQK; Peptide with targeting and/or antimicrobial activity) [Peptide 1T-222] | – | – | Target(s) [3]: F. nucleatum; also recorded: S. sanguinis
33 | 1T-145 (VEAGKRNISLENIEKISKGLGISISELFKYIEEGEDKIG; Peptide with targeting and/or antimicrobial activity) [Peptide 1T-145] | – | S. mitis; also recorded: S. mutans; also recorded: S. oralis | –
